Read-outs that look alike come from different tables or passages of the source. Marks after values point to notes of the source that are not given here.
How the values were obtained:
[1] = cited from earlier work
[2] = −log [M]free when [M]total = 10^−6 M and [L]total = 10^−5 M at pH = 7.4; cited from earlier work
[3] = −log [M]free when [M]total = 10^−6 M and [L]total = 10^−5 M at pH = 7.4; cited from earlier work; remark: listed apart in the source
[4] = Ligand protonation constants by potentiometric titration; type: physicochemical; conditions: protonation constant, 25.0 °C, 0.1 M KCl
[5] = protonation constant, cited from earlier work
[6] = cited from earlier work; remark: listed apart in the source
pLa value = type: binding; conditions: −log [M]free when [M]total = 10^−6 M and [L]total = 10^−5 M at pH = 7.4; calculated (Table S1)
pLu value = type: binding; conditions: −log [M]free when [M]total = 10^−6 M and [L]total = 10^−5 M at pH = 7.4; calculated (Table S1)

## O=C([O-])CN1CCN(CC(=O)[O-])CCN(CC(=O)[O-])CCN(CC(=O)[O-])CC1.[Gd+3] [Gd-DOTA]
[1]
  kex298 (water exchange rate constant): 4.1e+06 s⁻¹

## O=C(O)CN(Cc1cccc(CN(CC(=O)O)Cc2cccc(C(=O)O)n2)n1)Cc1cccc(C(=O)O)n1 [Pypa]
[2]
  pLa: 19.9
[3]
  pLu: 22.6

## CN(CCOCCN(C)Cc1cccc(C(=O)O)n1)Cc1cccc(C(=O)O)n1 [OxyMepa, 6,6’-(((oxybis(ethane-2,1-diyl))bis(methylazanediyl))bis(methylene))dipicolinic acid]
[4]
  log K1: 8.72(1)
  log K2: 7.81(2)
  log K3: 3.09(2)
  log K4: 2.35(4)

## O=C([O-])CN(CCN(CC(=O)[O-])CC(=O)O)CCN(CC(=O)[O-])CC(=O)O.[Gd+3] [Gd-DTPA]
[1]
  kex298 (water exchange rate constant): 3.3e+06 s⁻¹

## O=C(O)CN(CCOCCN(CC(=O)O)CC(=O)O)CC(=O)O [OBETA]
[5]; 0.1 M KCl
  log K1: 9.34^e
  log K2: 8.62^e
  log K3: 3.19^e
  log K4: 2.19^e
  log K5: 1.77^e

## O=C(O)c1ccccn1 [pyridinium-2-carboxylic acid]
[6]
  pKa: 5.39

## O=C(O)CN(CCN(CC(=O)O)Cc1cccc(C(=O)O)n1)Cc1cccc(C(=O)O)n1 [Octapa]
[5]; 0.15 M NaCl
  log K1: 8.52
  log K2: 5.40
  log K3: 3.65
  log K4: 2.97
  log K5: 1.66
[5]; 0.16 M NaCl
  log K1: 8.58
  log K2: 5.43
  log K3: 3.75
  log K4: 3.08
  log K5: 2.21
[2]
  pLa: 19.7
[3]
  pLu: 19.8

## Cc1cccc(C)n1 [2,6-dimethylpyridinium cation]
[6]
  pKa: 6.7

## O=C(O)CN(CCOCCN(CC(=O)O)Cc1cccc(C(=O)O)n1)Cc1cccc(C(=O)O)n1 [Oxyaapa, 6,6’-(((oxybis(ethane-2,1-diyl))bis((carboxymethyl)azanediyl))bis(methylene))dipicolinic acid]
[4]
  log K1: 8.47(4)
  log K2: 7.63(2)
  log K3: 3.66(4)
  log K4: 2.90(1)
  log K5: 1.77(12)
pLa value
  pLa: 18.5
pLu value
  pLu: 21.1

Reference: article PMC8111572 (Inorganic chemistry, 2020)
